Marks after values point to notes of the source that are not given here.

Series [1] in a line: occurrence of SCRAs in intoxication samples of the prospective study. More on the design: species or system human. Particulars: 2013 to 2021. The text has this: For this study, the 10 SCRAs (AB‐[…], ADB‐[…], AB‐FUBINACA, FUB‐AMB, Cumyl‐PEGACLONE, MDMB‐4en‐PINACA, MDMB‐CHMICA, 5F‐MDMB‐PICA, 5F‐ADB and 5F‐PB‐22) which were most frequently detected in intoxications in a prospective observational study during the time period of 2013 to 2021 were selected (see Table 1). Additionally, JWH‐210, a model compound representative of the early SCRAs, along with two substances prevalent in screenings during years 2019/2020 (5F‐Cumyl‐PEGACLONE and 4F‐MDMB‐BICA), were included in this study (see Tables S2–S7). […] JWH‐018 was also included as a reference compound because of its historical use in this capacity. Including both reference compounds facilitates direct comparison with previously published data, thereby enhancing the relevance and interpretability of the results obtained in the present study. Information on the origin of the test and reference compounds and all chemicals used in this study can be found in Table S1.
(§1) The data on intoxication cases used for the development of this risk score were obtained from a prospective study. This study included patients who were treated in an emergency department room following the consumption of an NPS. Clinical symptoms and follow‐up information were documented using a structured questionnaire completed by the attending physicians. The methodology has been previously published. Residual serum (obtained from venous blood) and urine samples, accompanied by the completed questionnaires, were sent to the Poisons Information Center Freiburg for further analysis. The toxicological analyses of serum and urine samples were conducted at the Institute of Forensic Medicine Freiburg. No data was available on previous consumption patterns or potential development of tolerance after continued misuse. The study was conducted in accordance with the Declaration of Helsinki and approved by the regional ethics committee of the University of Freiburg (no. 235/13_130683). The intoxication cases included in this study are those in which SCRA use was confirmed by liquid chromatography tandem mass spectrometry (LC–MS/MS).

Series [2] in a line: LC–MS/MS analysis of serum and urine samples of intoxication cases. Type of series: in vivo, human. Conditions: for Concentration in serum: patient serum; for Finding in urine: patient urine. Here is the method: as §1
Serum/blood and urine analyses were conducted at the Institute of Forensic Medicine Freiburg using previously published LC–MS/MS methods, that were modified by adding further analytes present in ‘legal‐high’ products (‘herbal blends’, ‘C‐liquids’ or ‘research chemicals’), and covered approximately 100 different SCRAs. Detailed information can be found in the Supporting Information.
Urine samples were analysed according to previously published and validated method by Franz et al.^2. For sample preparation 0.5 mL of phosphate buffer (pH 6) and 30 μL of β-glucuronidase were added to 0.5 mL of urine. Incubation was for 60 min at 45°C. This was followed by protein precipitation using 1.5 mL acetonitrile containing the internal standard (c = 2 ng/mL) and 0.56 mL 10 M ammonium formate solution, followed by shaking and centrifugation. 1 mL of the organic phase was transferred into an autosampler vial and evaporated to dryness under N2. The samples were reconstituted in 200 μL mobile phase.
Urine sample analysis was performed on a Dionex UltiMate® 3000RS UHPLC (Thermo Scientific, Dreieich, Germany) coupled to an API 5000^TM triple quadrupole instrument with a TurboIonSpray® interface (Sciex, Darmstadt, Germany). Separation was performed on a Luna C18 100 Å (150 x 2 mm, 5 μm) column with the mobile phase consisting of 0.2% HCOOH and 2 mmol/L NH^4+HCOO^− in water (A) and acetonitrile (B).

The target in series [3] is T1, hCB1 receptor (Homo sapiens, UniProt P21554). The series can be described thus: competitive [3H]CP‐55940 radioligand binding assay (hCB1 receptor affinity). Particulars: Ki [nM] (95% CI), [3H]CP‐55940 competition, hCB1 membrane preparations (HEK293‐EBNA), Cheng–Prusoff; 95% CI in brackets. The procedure:
Receptor assays were performed on three different days and each concentration was tested in duplicate.
From the IC50, the respective Ki values were calculated using the Cheng–Prusoff equation [39].

A short description of series [4]: clinical symptoms, PSS and TSS assessment of individual intoxication cases. More on the design: key to PSS: 0: no; 1: mild; 2: moderate; 3: severe; 4: fatal intoxication. It is filed as in vivo, human. Here is the method: Forty‐eight cases were included in the present study.
The PSS was determined based on the described symptoms.
For part G2, the severity of the intoxication caused by the respective SCRA x was assessed on the basis of reported symptoms and follow‐up information using the PSS [20]. The PSS classifies the intoxication severity into five levels: (0) no, (1) mild, (2) moderate, (3) severe, and (4) fatal intoxication. […] For this purpose, the mean value of the PSS of all intoxications with the respective SCRA x was calculated ( G2x) .
For part G3, the involvement of the SCRA in the respective intoxications was assessed. This was evaluated on the basis of the TSS [21]. Elliott et al. developed the TSS to assess and classify the contribution of NPS in fatalities. In the present study, the TSS was determined to weigh the involvement of the investigated SCRA in the intoxication and the contribution of the SCRA to the observed symptoms. To determine the TSS value, factors such as the determined concentration of the SCRA, the presence of other recreational drugs or medicinal drugs, the general health of the patient and the consumption circumstances need to be considered. […] In cases with more than one drug detected, a TSS of 3 was only assigned where other compounds were present at concentrations below the range in which relevant effects are to be expected.

Series [5] addresses T1, hCB1 receptor. Conditions: ref Wouters et al. [29], cited from earlier work.

T1 sequence (P21554 whole entry): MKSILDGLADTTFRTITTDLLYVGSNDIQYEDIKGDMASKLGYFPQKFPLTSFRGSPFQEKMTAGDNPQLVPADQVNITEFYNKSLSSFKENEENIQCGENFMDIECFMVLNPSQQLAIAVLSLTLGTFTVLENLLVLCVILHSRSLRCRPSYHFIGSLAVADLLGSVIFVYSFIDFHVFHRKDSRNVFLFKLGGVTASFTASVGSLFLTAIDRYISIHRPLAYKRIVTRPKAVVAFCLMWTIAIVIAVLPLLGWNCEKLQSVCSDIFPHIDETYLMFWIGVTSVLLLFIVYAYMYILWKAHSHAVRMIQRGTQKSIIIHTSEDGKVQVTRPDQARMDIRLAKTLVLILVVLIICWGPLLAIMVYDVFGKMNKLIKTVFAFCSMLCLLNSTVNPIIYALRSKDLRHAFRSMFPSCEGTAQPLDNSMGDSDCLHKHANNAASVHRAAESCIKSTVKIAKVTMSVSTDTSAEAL

For the molecule `CC(C)C(NC(=O)c1nn(CC2CCCCC2)c2ccccc12)C(N)=O` (stereo not drawn), the No. of intoxications in series [1] (139 intoxication samples of the prospective study) stood at 33. For the same molecule, the Percentage in % in series [1] (proportion of 139 intoxications in which the substance was detected) was found to be 24%. Besides, the Concentration in serum in series [2] (intoxication case A (AB‐CHMINACA)) was 9.5 ng/mL; in series [2] (intoxication case B (AB‐CHMINACA)), 27 ng/mL; in series [2] (intoxication case B (AB‐CHMINACA), listed as AB-CHMINACA), “ca. 27 ng/mL”. Besides, the Finding in urine result in series [2] (intoxication case A) and in series [2] (intoxication case B) was “positive” in each case. Moreover, on hCB1 receptor [3], the Ki worked out at 0.145 nM. The PSS in series [4] (intoxication case A) worked out at 3; in series [4] (intoxication case B) it was 2. For the same molecule, the Recorded symptoms entry in series [4] (intoxication case A, 3‐MMC also present) was “severe bradycardia (35 bpm/minutes)”; in series [4] (intoxication case A, 3‐MMC also present, listed as AB-CHMINACA) it was “bradycardia (35 bpm/min), seizure, hypokalaemia”; in series [4] (intoxication case B, four other SCRAs at very low concentrations), “disorientation and miosis”. Moreover, the EC50 on hCB1 receptor [5] (read-out: βarr2 assay EC50 [nM] (95% CI)) was 3.45 nM. For the same molecule, at hCB1 receptor [5] (relative to CP‐55940, originally normalised to JWH‐018, corrected with factor 0.3268), the “βarr2 assay Emax [%] (95% CI)” value is given as 1195 ^a (1097–1331) %.

The record behind these values is publication PMC12980303, “Development of a novel risk score reflecting the relative harm potential of synthetic cannabinoids based on prevalence estimates, well‐documented intoxication cases and basic pharmacological data” (Addiction (Abingdon, England), 2025).
